# “Also recorded” adds a separate entry of the source.
# Columns and labels:
# [1] = system: experimental autoimmune encephalomyelitis (EAE); assay: Relapsing-progressive experimental autoimmune encephalomyelitis (EAE) in ABH mice; format: in vivo, mouse
# Method: ABH mice were injected with 1 mg mouse spinal cord homogenate in Freund's adjuvant on days 0 and 7 post-induction to induce EAE and this was repeated on day 28 post-induction to induce a relapse.
# Animals were monitored for the development of clinical disease and the results in FIG. 1 represent the mean daily clinical score after induction of relapse.
# Mice were injected subcutaneously (s.c.) with 1 mg freeze-dried mouse spinal cord homogenate (SCH) in Freunds adjuvant on day zero and seven as described previously (Al-Izki et al, 2012a). After the initial paralytic disease and subsequent remission, a relapse was induced by a further injection of SCH in Freunds incomplete adjuvant on day 28 to induce a relapse 7 days later (Al-Izki et al, 2012a). Studies were randomised, blinded and powered as described previously (Al-Izki et al, 2012a). Neurological scores were graded as 0=normal; 1=limp tail, 2=impaired righting reflex, 3=hindlimb paresis, 4=complete hindlimb paralysis, and 5=moribund/death (Al-Izki et al, 2012a). Results are expressed as mean±SEM maximum or minimum neurological score and mean day of onset±SD. Differences between groups were assessed using Mann Whitney U statistics (Al-Izki et al, 2012a). Motor control and co-ordination was assessed on an accelerating (4-40 rpm, accelerating at 6 rpm/25 s) RotaRod (ENV-575M, Med Associates Inc, St. Albans, Vt., USA) as described previously (Al-Izki et al, 2012a). This was performed one day before induction of relapse and at the termination of the experiment on day 45. RotaRod assessment was performed blinded to treatment. Animals were randomised to vehicle or treatment based on their RotaRod scores. Results are expressed as mean±SEM time that animals maintained rotarod activity. Differences between groups were assessed using Students t test, incorporating a test for equality of variance and normality (Al-Izki et al, 2012a). At the end of the experiment the spinal cord was removed and an enzyme linked immunosorbent assay (ELISA) for heavy chain neurofilament on spinal cord was performed and total nerve content of each spinal cord was estimated following calibration against neurofilament protein standards as described previously (Jackson et al, 2005); (Al-Izki et al, 2012a).
# Neurofilament level as a correlate of spinal cord axonal content was determined as followed. Spinal cords were collected from the spinal columns of untreated (n=11) and Compound 11 mg/kg treated (n=13) animals at the second remission phase of disease post relapse at day 45 post disease induction. Tissues snap frozen and stored at −80° C. prior to homogenisation. Tissues were homogenised in a glass homogeniser in 1 ml/100 mg of spinal cord tissue wet weight homogenisation buffer (0.2 mM PMSF, 1 mM EDTA, 1 mM EGTA, 4M Urea, 10 mM Tris-HCl Sigma UK, pH 7.2,) plus 1:100 HALT protease inhibitor cocktail (Thermo Fisher, UK) and further homogenised by sonication twice for 10 seconds (Cole-Parmer Instruments, USA). Samples were spun down at 13,000 rpm in a bench top centrifuge (Eppendorf, UK) and the supernatant was collected and stored at −80° C. prior to neurofilament determination. Samples were thawed on ice and an enzyme linked immunosorbent assay for heavy chain neurofilament was performed. Briefly, a 96 well plate was coated overnight at 4° C. with capture antibody (1:5000 SMI-35 anti-neurofilament H. Covance Inc. Cambridge Bioscience, Cambridge, UK) in coating buffer (0.15M Na2CO3, 0.35M NaHCO3, Sigma, UK, pH 9.6. Following one wash in wash buffer (150 mM NaCl, 10 mM Tris-HCl, 0.1% Tween 20, Sigma, UK pH 7.5), non-specific binding was blocked by incubation with 5% bovine serum albumin (Sigma, UK) in wash buffer for 1 hour at room temperature. Following a wash step, samples and standards (Porcine neurofilament heavy chain, Chemicon International, UK) were diluted in wash buffer with 1% bovine serum albumin and incubated on the plate for 1 hour at room temperature. […]
# [2] = system: isolated rat liver mitochondria; assay: Mitochondrial functional parameters in isolated liver mitochondria; format: biochemical; details: Compound 1 up to 200 nM, CsA up to 1 μM
# Method: Oxygen consumption was measured using Oroboros Oxygraph-2K as previously described (Astin et al, 2013). Prior to the assay, the Oxygraph chambers were calibrated with Miro5 buffer (0.5 mM EGTA, 3 mM MgCl2.6H2O, 60 mM K-lactobionate, 20 mM taurine, 10 mM KH2PO4, 20 mM HEPES, 110 mM sucrose, 1 g/l BSA (essentially fatty acid free)). Isolated mitochondria were suspended in Miro5 (at 100-200 μg/ml), loaded into the chamber together with substrates (malate, 2 mM; glutamate, 10 mM), and the O2 flow signal was allowed to stabilise to the basal respiration rate (approx. 10 min).
# Freshly isolated mouse liver mitochondria were suspended in MSK buffer containing 10 ug/ml rhodamine123 (dequench mode), at a concentration of 500 ug/ml, and plated in an opaque black 96 well plate. Baseline fluorescence was then measured every 60 seconds for 5 minutes in a Fluostar Optima (Ex480/Em520) before manual addition of compounds (concentrations as specified). Fluorescence measurements were continued for 45 minutes until the addition of 2 uM FCCP, followed by a further 10 minutes of fluorescence readings.
# Freshly isolated mitochondria were resuspended in MSK buffer (containing 10 mM glutamate and 2 mM malate) at 1 mg/ml and plated in opaque white 96 well plates, or for neuronal assays, neurons were used 9 days after plating at 15000 cells/well. Drugs were added at the concentrations specified, and for mitochondrial assays were incubated for ten minutes before addition of ADP (5 mM), followed by another 45 minutes. For neuronal assays, drugs were added in neurobasal medium and incubated for 60 minutes. Cell Titer Glo reagent was then added, and the plate shaken for 2 minutes in the dark to lyse cells/mitochondria and release ATP. The plates were incubated a further ten minutes and then luminescence values read using an Optima FluoStar.
compound,measurement,setting,value
"CC[C@@H]1NC(=O)[C@H]([C@H](O)[C@H](C)C/C=C/CCC[n+]2cccc3ccccc32)N(C)C(=O)[C@H](C(C)C)N(C)C(=O)[C@H](CC(C)C)N(C)C(=O)[C@H](CC(C)C)N(C)C(=O)[C@@H](C)NC(=O)[C@H](C)NC(=O)[C@H](CC(C)C)N(C)C(=O)[C@H](C(C)C)NC(=O)[C@H](CC(C)C)N(C)C(=O)CN(C)C1=O [Compound 1, [Gly-(1S,2R,E)-8-quinolinium-1-hydroxy-2-methyloct-4-ene]^1 CsA]",mean daily clinical score after induction of relapse,[1]; 1 mg/kg i.p. daily from day 33,inhibits the accumulation of neurological deficit; also recorded: has neuroprotective properties
same,loss of axons within the spinal cord,"[1]; 1 mg/kg i.p., vs vehicle",lost significantly (P<0.01) less nerves (FIG. 7B) and axons
same,loss of motor co-ordination,"[1]; 1 mg/kg i.p., vs vehicle",significantly (P<0.001) less loss of motor co-ordination
same,loss of nerves within the spinal cord (neurofilament ELISA),"[1]; 1 mg/kg i.p., vs vehicle",lost significantly (P<0.01) less nerves
same,rotarod activity (time on accelerating rotarod),"[1]; day 27, first remission, before treatment",168.8 ± 21.8 s
same,rotarod activity (time on accelerating rotarod),"[1]; second remission after relapse (day 45), 1 mg/kg i.p.",135.0 ± 42.9 s
same,ATP production,[2]; isolated mitochondria with substrates and ADP,"Neither mitochondrial membrane potential (FIG. 4A,B), oxygen consumption (FIG. 4C, D) and ATP production (FIG. 4E, F) were affected"
same,oxygen consumption,"[2]; isolated mitochondria, glutamate and malate","Neither mitochondrial membrane potential (FIG. 4A,B), oxygen consumption (FIG. 4C, D) and ATP production (FIG. 4E, F) were affected"
same,mitochondrial membrane potential,"[2]; isolated mitochondria, rhodamine-123","Neither mitochondrial membrane potential (FIG. 4A,B), oxygen consumption (FIG. 4C, D) and ATP production (FIG. 4E, F) were affected"

# Source: patent US10494404B2, “Quinolinium conjugates of cyclosporin” (priority 2014, dated 2019)
